Measured values reported in PubChem BioAssay AID248 (DTP/NCI, 2004).
Toxic doses and inconclusive results are not listed. No stated cut-off is given here; in the data, active means T/C of 150% or more; inactive means T/C below 125%.

System: L1210 leukemia ip in BDF1 mice, survival T/C
Experiment: NCI In Vivo Anticancer Drug Screen. Data for tumor model L1210 Leukemia (intraperitoneal) in B6D2F1 (BDF1) mice
Settings: endpoint: mean survival time, higher = longer survival
Summary of the method: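 Transplantable tumor model; survival measured in treated vs vehicle control mice. Value = treated/control.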

[1] = dose: 100.0 mg/kg/injection, schedule: Q04DX003 (ip), vehicle: Klucel (hydroxypropylcellulose) (HPC)
[2] = dose: 200.0 mg/kg/injection, schedule: Q04DX003 (ip), vehicle: Klucel (hydroxypropylcellulose) (HPC)
[3] = dose: 400.0 mg/kg/injection, schedule: Q04DX003 (ip), vehicle: Klucel (hydroxypropylcellulose) (HPC)
[4] = dose: 100.0 mg/kg/injection, schedule: Q04DX003 (ip), vehicle: saline
[5] = dose: 200.0 mg/kg/injection, schedule: Q04DX003 (ip), vehicle: saline
[6] = dose: 400.0 mg/kg/injection, schedule: Q04DX003 (ip), vehicle: saline
[7] = dose: 100.0 mg/kg/injection, schedule: Q04DX002 (ip), vehicle: Klucel (hydroxypropylcellulose) (HPC)
[8] = dose: 200.0 mg/kg/injection, schedule: Q04DX002 (ip), vehicle: Klucel (hydroxypropylcellulose) (HPC)
[9] = dose: 400.0 mg/kg/injection, schedule: Q04DX002 (ip), vehicle: Klucel (hydroxypropylcellulose) (HPC)
[10] = dose: 100.0 mg/kg/injection, schedule: Q01DX009 (ip), vehicle: Klucel (hydroxypropylcellulose) (HPC)
[11] = dose: 200.0 mg/kg/injection, schedule: Q01DX009 (ip), vehicle: Klucel (hydroxypropylcellulose) (HPC)
[12] = dose: 400.0 mg/kg/injection, schedule: Q01DX009 (ip), vehicle: Klucel (hydroxypropylcellulose) (HPC)
[13] = dose: 100.0 mg/kg/injection, schedule: Q01DX001 (ip), vehicle: saline
[14] = dose: 100.0 mg/kg/injection, schedule: Q04DX003 (ip), vehicle: saline with Tween-80
[15] = dose: 200.0 mg/kg/injection, schedule: Q04DX003 (ip), vehicle: saline with Tween-80
[16] = dose: 400.0 mg/kg/injection, schedule: Q04DX003 (ip), vehicle: saline with Tween-80

Measured: T/C

c1ccc2c(C3=NCCN3)ccc(C3=NCCN3)c2c1
inactive: dose: 15.0 mg/kg/injection, schedule: Q01DX Z (ip), vehicle: saline 100 % of control | dose: 30.0 mg/kg/injection, schedule: Q01DX Z (ip), vehicle: saline 101 % of control

CC(C)CNCc1cc([N+](=O)[O-])ccc1O
inactive: dose: 75.0 mg/kg/injection, schedule: Q01DX001 (ip), vehicle: saline 100 % of control | dose: 150.0 mg/kg/injection, schedule: Q01DX001 (ip), vehicle: saline 97 % of control | dose: 300.0 mg/kg/injection, schedule: Q01DX001 (ip), vehicle: saline 94 % of control

Cc1cc(C)nc(/N=N/c2nc(C)cc(C)n2)n1
inactive: dose: 55.0 mg/kg/injection, schedule: Q01DX Z (ip), vehicle: saline 95 % of control | dose: 83.0 mg/kg/injection, schedule: Q01DX Z (ip), vehicle: saline 91 % of control | dose: 125.0 mg/kg/injection, schedule: Q01DX Z (ip), vehicle: saline 103 % of control

CCOP(=O)(NCCc1ccccc1)OCC
inactive: dose: 50.0 mg/kg/injection, schedule: Q01DX001 (ip), vehicle: carboxymethylcellulose (CMC) 109 % of control | dose: 100.0 mg/kg/injection, schedule: Q01DX001 (ip), vehicle: carboxymethylcellulose (CMC) 109 % of control | dose: 200.0 mg/kg/injection, schedule: Q01DX001 (ip), vehicle: carboxymethylcellulose (CMC) 101 % of control

CCOC(=O)CCN(CCC(=O)OCC)C1CC1c1ccccc1 (stereo unspecified)
inactive: [1] 100 % of control | [2] 95 % of control | [3] 100 % of control

OCCN1CCN(CC/C=C2/c3ccccc3Sc3ccc(C(F)(F)F)cc32)CC1
inactive: dose: 0.78 mg/kg/injection, schedule: Q03HX024 (ip), vehicle: saline 94 % of control | dose: 1.56 mg/kg/injection, schedule: Q03HX024 (ip), vehicle: saline 103 % of control | dose: 2.0 mg/kg/injection, schedule: Q01DX009 (ip), vehicle: saline 89 % of control | dose: 2.5 mg/kg/injection, schedule: Q01DX009 (ip), vehicle: saline 114 % of control | dose: 3.12 mg/kg/injection, schedule: Q03HX024 (ip), vehicle: saline 105 % of control | dose: 4.0 mg/kg/injection, schedule: Q01DX009 (ip), vehicle: saline 98 % of control | dose: 5.0 mg/kg/injection, schedule: Q01DX009 (ip), vehicle: saline 103 % of control | dose: 6.25 mg/kg/injection, schedule: Q04DX003 (ip), vehicle: saline 101 % of control | dose: 8.0 mg/kg/injection, schedule: Q01DX009 (ip), vehicle: saline 93 % of control | dose: 10.0 mg/kg/injection, schedule: Q01DX009 (ip), vehicle: saline 116 % of control | dose: 10.0 mg/kg/injection, schedule: Q04DX003 (ip), vehicle: saline 115 % of control | dose: 12.5 mg/kg/injection, schedule: Q04DX003 (ip), vehicle: saline 110 % of control | dose: 18.75 mg/kg/injection, schedule: Q01DX001 (ip), vehicle: saline 107 % of control | dose: 20.0 mg/kg/injection, schedule: Q01DX009 (ip), vehicle: saline 95 % of control | dose: 37.5 mg/kg/injection, schedule: Q01DX001 (ip), vehicle: saline 117 % of control | dose: 50.0 mg/kg/injection, schedule: Q04DX003 (ip), vehicle: saline 121 % of control

CCOC(=O)/C(C#N)=C\c1cc(=O)c(OC)co1
inactive: [4] 98 % of control | [5] 104 % of control | [6] 102 % of control

Cc1ccnc(NC(=O)Nc2ccc(C)cc2[N+](=O)[O-])c1
inactive: [7] 99 % of control | [8] 105 % of control | [9] 115 % of control

Cc1cc(=O)n2c3c(c(N)ccc13)OC2
inactive: [10] 108 % of control | [1] 93 % of control | [11] 97 % of control | [2] 100 % of control | [12] 93 % of control | [3] 97 % of control

O=C(O)CC1CCCNC1 (stereo unspecified)
inactive: dose: 75.0 mg/kg/injection, schedule: Q04DX003 (ip), vehicle: saline 100 % of control | dose: 150.0 mg/kg/injection, schedule: Q04DX003 (ip), vehicle: saline 103 % of control | dose: 300.0 mg/kg/injection, schedule: Q04DX003 (ip), vehicle: saline 101 % of control

CCC1CC2c3cc(OC)c(OC)cc3CCN2CC1(O)Cc1ccncc1 (stereo unspecified)
inactive: dose: 100.0 mg/kg/injection, schedule: Q04DX003 (ip), vehicle: carboxymethylcellulose (CMC) 100 % of control | dose: 200.0 mg/kg/injection, schedule: Q04DX003 (ip), vehicle: carboxymethylcellulose (CMC) 104 % of control

CCCCSCCOC(=O)Nc1ccc(Cl)cc1
inactive: [10] 103 % of control | [11] 108 % of control | [12] 92 % of control

C=C1C(=O)OC2CC3(C)C(O)CCC(=C)C3C(OC(C)=O)C12 (stereo unspecified) (tested in a mixture with another compound)
inactive: [13] 104 % of control

O=C(O)C1CC2C3CC(C(=O)O)C(C3)C2C1 (stereo unspecified)
inactive: dose: 100.0 mg/kg/injection, schedule: Q01DX009 (ip), vehicle: saline 96 % of control | [4] 102 % of control | dose: 200.0 mg/kg/injection, schedule: Q01DX009 (ip), vehicle: saline 101 % of control | [5] 100 % of control | dose: 400.0 mg/kg/injection, schedule: Q01DX009 (ip), vehicle: saline 101 % of control | [6] 96 % of control

CSCCOP(=O)(N(C)C)N(C)C
inactive: [7] 103 % of control | [8] 103 % of control | [9] 88 % of control

C/C=C/C(C1=C(O)c2ccccc2C(=O)C1=O)C1=C(O)c2ccccc2C(=O)C1=O
inactive: dose: 75.0 mg/kg/injection, schedule: Q01DX001 (ip), vehicle: carboxymethylcellulose (CMC) 100 % of control | dose: 150.0 mg/kg/injection, schedule: Q01DX001 (ip), vehicle: carboxymethylcellulose (CMC) 118 % of control | dose: 300.0 mg/kg/injection, schedule: Q01DX001 (ip), vehicle: carboxymethylcellulose (CMC) 108 % of control

CC(C)(C)c1ccc(OS(=O)(=O)c2cccc([N+](=O)[O-])c2)cc1
inactive: [14] 104 % of control | [15] 99 % of control | [16] 106 % of control

Cc1c(Cl)cccc1NC(=O)Oc1ccc(Cl)cc1
inactive: dose: 100.0 mg/kg/injection, schedule: Q01DX009 (ip), vehicle: saline with Tween-80 92 % of control | [14] 93 % of control | dose: 200.0 mg/kg/injection, schedule: Q01DX009 (ip), vehicle: saline with Tween-80 87 % of control | [15] 97 % of control | dose: 400.0 mg/kg/injection, schedule: Q01DX009 (ip), vehicle: saline with Tween-80 87 % of control | [16] 102 % of control

CC(C)CCCC(C)C1CCC2C3CC=C4CC(OC(=O)C(Cl)(Cl)Cl)CCC4(C)C3CCC12C (stereo unspecified)
inactive: dose: 40.0 mg/kg/injection, schedule: Q01DX009 (sc), vehicle: steriod suspending solution 94 % of control | dose: 50.0 mg/kg/injection, schedule: Q04DX003 (sc), vehicle: steriod suspending solution 98 % of control | dose: 75.0 mg/kg/injection, schedule: Q01DX009 (sc), vehicle: steriod suspending solution 101 % of control | dose: 100.0 mg/kg/injection, schedule: Q04DX003 (sc), vehicle: steriod suspending solution 101 % of control | dose: 150.0 mg/kg/injection, schedule: Q01DX009 (sc), vehicle: steriod suspending solution 95 % of control | dose: 200.0 mg/kg/injection, schedule: Q04DX003 (sc), vehicle: steriod suspending solution 108 % of control

CN(C)C(=S)N(C(=S)N(C)C)c1ccccc1
inactive: [13] 95 % of control | dose: 200.0 mg/kg/injection, schedule: Q01DX001 (ip), vehicle: saline 103 % of control | dose: 400.0 mg/kg/injection, schedule: Q01DX001 (ip), vehicle: saline 108 % of control
